The values below come from patent publication US20210247277A1, “Pretreatment Method for Fluorescent Image Diagnosis” (Goryo Chemical, Inc., priority 2018, published 2021).

Data set [1] in a line: Fluorescence intensity of the probe and of its fluorescent product at each pH. The class given is physicochemical. Conditions: dependence on pH. As to the method:
(§1) Cells cultured on glass surface were reacted with gGlu-HMRG, and fluorescence intensity was compared. HeLa cells were inoculated at the same density to chambers of a 4-chamber glass bottom dish. The cells were cultured in DMEM+8% FBS, P.S. under conditions of 37° C. and 5% CO2 for approximately 8 hours. The cells were rinsed three times with PBS(−) adjusted to pH 6.5, 7.3, or 7.8, which was then replaced with each solution supplemented with 2 μM gGlu-HMRG. The cells were stained at 37° C. under 5% CO2 for 20 minutes and observed under a fluorescence microscope under the same conditions as above without the solution replaced. 100 ms exposure, gain 5 Int 5, ND1. Fluorescence intensity from 5 cells in fluorescence images, and background fluorescence intensity were measured with reference to superimposed images with DIC, and the mean and standard deviation were plotted. The fluorescence intensity of gGlu-HMRG and the fluorescence intensity of HMRG (fluorescent substance after reaction with GGT) were measured at each pH.

For the next data set, the system named is A549 cell spheroid. As to the kind of experiment: Quantification of probe reaction and penetration in A549 cell spheroid (fluorescence intensity by depth). Format: cell-based, human. The method, then: (§2) FIG. 4 illustrates a method for analyzing the penetration or reaction of reagents into or with the spheroid. When “Depth” shown in FIGS. 5 to 10 was, for example, 200 μm, the fluorescence intensity of an open region in the illustration was determined from fluorescence intensity observed by fluorescence microscope, wherein the open region has the inside circle at 200 μm inside from the outer periphery and has the outside circle at 100 μm outside from the aforementioned inside circle as shown in the drawing.
(§3) HeLa cells (human uterine cervical cancer cell line) or A549 cells (human alveolar basal epithelial adenocarcinoma cell line) were inoculated at 1×10^4 cells to Nunclon Sphera and cultured for 7 to 14 days. Each obtained spheroid was allowed to adhere to a poly-L-lysine-coated glass bottom dish over approximately 24 hours. The medium was replaced with a buffer, and the spheroid was incubated at room temperature for 10 minutes (impregnation, rinse). The buffer in the dish was replaced with each buffer containing gGlu-HMRG dissolved to attain a final concentration of 0.1 μM (A549 cells) or 1 μM (HeLa cells), followed by observation under a fluorescence microscope (Leica DMI 6000 CS, lens: 10×, filter Leica L5, ex. 460 to 500 nm, em. 512 to 542 nm). An area (ROI) having the distance from surface shown in FIG. 4 was captured with ImageJ, and increase in the average luminance between the start of measurement and 5 minutes later was analyzed. Fluorescence was also observed by impregnating with saline and addition of gGlu-HMRG dissolved in PBS(−).
(§4) The buffers used and their composition are as follows.
(§5) PBS(−): 140 mM NaCl, 2.7 mM KCl, 10 mM PO4^3− (pH=7.4) PBS(+): PBS(−) described above as well as 0.90 mM CaCl2, 0.33 mM MgCl2 (pH=7.4) PBS−Ca: PBS(−) described above as well as 0.90 mM CaCl2 (pH=7.4) PBS−Mg: PBS(−) described above as well as 0.33 mM MgCl2 (pH=7.4) PBS−EDTA: PBS(−) described above as well as 0.2 mM EDTA (pH=7.4)
(§6) To evaluate the influence of divalent ion (calcium, etc.)-dependent adhesion, fluorescence was observed under the same conditions as in Example 3 except that the following buffers were used.
(§7) (1) No pretreatment (no rinse) and impregnation with a solution of gGlu-HMRG dissolved in PBS(−) (2) Pretreatment by Impregnating with PBS(−) (3) Pretreatment by Impregnating with PBS(+) (4) Pretreatment by impregnating with PBS(−)+0.2 mM EDTA
Fluorescence was measured by the same method as in Example 3 except that a 5 μM FeRhoNox-1 probe was used instead of gGlu-HMRG as the fluorescent probe. The cells used were only A549 cells.

The next data set has as its system HeLa cells. As to the kind of experiment: Influence of pH on fluorescence of HeLa cells cultured on glass surface. The class given is cell-based, human. Conditions: 2 μM, 20 minutes, 37° C. As to the method:
as §1

The next data set has as its system HeLa cell spheroid. The data set is described as follows: Quantification of probe reaction and penetration in HeLa cell spheroid (fluorescence intensity by depth). Format: cell-based, human. As to the method:
as §2
as §3, with “The buffer in the dish was replaced with each buffer containing gGlu-HMRG dissolved to attain a final concentration of 0.1 μM (A549 cells) or 1 μM (HeLa cells), followed by observation under a fluorescence microscope (Leica DMI 6000 CS, lens: 10×, filter Leica L5, ex. 460 to 500 nm, em. 512 to 542 nm).” left out
as §4, §5, §6, §7

In another data set the test system is HeLa cells spheroid. The data set is described as follows: Time-dependent fluorescence intensity in HeLa cell spheroid (fluorescence microscope). The class given is cell-based, human. Conditions: 1 μM; washed with HBSS and probe in HBSS, compared with PBS(−) 10 min and probe in PBS(−). As to the method:
Time-dependent changes in fluorescence intensity are shown for a HeLa cells spheroid which was washed with HBSS and then impregnated with a 1 μM solution of gGlu-HMRG dissolved in HBSS (upper), and for a HeLa cells spheroid which was impregnated with PBS(−) for 10 minutes and then impregnated with a 1 μM solution of gGlu-HMRG dissolved in PBS(−) (lower).
HeLa cells were inoculated at 10^5 cells/well and cultured for 4 to 6 days. The obtained spheroid was put on a glass bottom dish and cultured for about 3 hours. Then, the culture solution was removed, and the spheroid was impregnated with PBS(−) for 10 minutes. A control was washed with HBSS without being impregnated with PBS(−). A 1 μM solution of gGlu-HMRG dissolved in PBS(−) or HBSS was added to the spheroid impregnated with PBS(−) or the control spheroid. Each spheroid immediately (0 minutes), 10 minutes, 20 minutes, 30 minutes, and 60 minutes after addition of the gGlu-HMRG solution was photographed under a fluorescence microscope (Leica DMI 6000 CS, lens: 10×, filter Leica L5, excitation wavelength: 460 to 500 nm, fluorescence wavelength: 512 to 542 nm). Transmitted light images of the spheroid were taken 10 minutes after impregnated with PBS(−).

Data set [2] has as its system lymph nodes including sentinel lymph node (breast cancer metastasis). As to the kind of experiment: Fluorescence increase in lymph node clinical specimens resected during breast cancer surgery. Conditions: 50 μM in PBS. The method, then:
After pretreatment of lymph node specimens resected during breast cancer surgery in PBS(−) for 0 minutes, 1 minute, 5 minutes, 10 minutes or an appropriate course of time, increases of fluorescence at 10 minutes after impregnation with a 50 μM gGlu-HMRG solution from that immediately after the impregnation are shown. A specimen diagnosed with cancer metastasis in pathological diagnosis is indicated by a filled circle, and a specimen confirmed to have no cancer metastasis is indicated by an open triangle.
Lymph nodes including sentinel lymph node excised for the purpose of pathological diagnosis during breast cancer surgery were divided and transported from the operating room to an inspection room in a state wrapped in gauze wetted with PBS. A reagent and PBS (140 mM NaCl, 2.7 mM KCl, 10 mM PO4^3−, pH=7.4) at room temperature were used. A PBS impregnated sample was impregnated with a container where PBS was placed, and continuously impregnated for 1 minute, 5 minutes, 10 minutes, or an appropriate course of time from 1 minute to 30 minutes. A PBS non-impregnated sample was stored in state wrapped in gauze wetted with PBS to prevent drying out, instead of being impregnated with PBS, and used in fluorescence measurement. The lymph nodes were carefully taken out with tweezers and put on a Petri dish, and visible images of autofluorescence were taken in a fluorescence measuring machine. 50 μM gGlu-HMRG dissolved in PBS was added to the Petri dish where the lymph nodes were placed, until the lymph nodes completely soaked therein. The fluorescence measurement was continued. The pathological diagnosis of the specimens used in this test was also conducted and checked against final results about whether cancer metastasized to each lymph node.
The fluorescence intensity was indicated by a ratio to the fluorescence intensity of a fluorescence intensity reference plate having a constant fluorescence intensity (measured fluorescence intensity/fluorescence intensity of the fluorescence intensity reference plate).

The mark [3] stands for this setting: PBS(−) + 0.2 mM EDTA, compared with PBS(−).

In the case of `Nc1ccc2c(c1)Oc1cc(N)ccc1C21OCc2ccccc21` [HMRG], the “Fluorescence intensity at each pH” value in data set [1] is recorded as “decreased with the elevation of pH”.
On to `Nc1ccc2c(c1)Oc1cc(NC(=O)CC[C@H](N)C(=O)O)ccc1C21OCc2ccccc21` (stereo partly shown) [gGlu-HMRG], for which, in the data set on A549 cell spheroid (PBS(+) impregnation), the “Increase rate of fluorescence, 5 minutes” value was “almost equivalent to that of no impregnation”. Besides, the “Increase of fluorescence intensity by depth, 5 minutes” value in the data set with A549 cell spheroid (setting [3]) is on record as “larger increase of fluorescence intensity at a site deeper from surface”. Also, the “Increase rate of fluorescence intensity, 5 minutes” value with A549 cell spheroid (PBS(−) impregnating treatment 10 min compared with PBS(+), 0.1 μM, 50 μM (FIG. 6 legend)) is given as “accelerated the increase rate of fluorescence intensity”; in the data set with A549 cell spheroid (PBS−Ca (PBS(−) + 0.90 mM CaCl2) 10 min, as in PBS(+)), “less increased fluorescence”; in the data set on A549 cell spheroid (PBS−Mg (PBS(−) + 0.33 mM MgCl2) 10 min), “Substantially the same results as those of PBS(−)”. For the same compound, the “Increase of fluorescence intensity, 5 minutes” value in the data set with A549 cell spheroid (saline (154 mM NaCl) 10 min) is “increase of fluorescence intensity was slow”. In addition, in the data set with HeLa cells (PBS(−) at lower pH (pH 6.5, 7.3, 7.8 tested)), the “Fluorescence intensity of cells and background” value was “lower pH decreased a signal and increased a background”. Moreover, the “Fluorescence intensity of cells” value in the data set with HeLa cells (PBS(−) at pH of 7.3 or higher) was “increased signal intensity”. The “Increase of fluorescence by distance from surface, 5 minutes” value in the data set on HeLa cell spheroid (setting [3]) is given as “further accelerated the increase of fluorescence”; with HeLa cell spheroid (PBS(−) impregnation 10 minutes, probe in PBS(−), compared with HBSS without wash) it was “increase of fluorescence was mora rapid”; with HeLa cell spheroid (PBS(−) impregnation compared with no impregnation or PBS(+)), “accelerated the increase of fluorescence at a location distant from surface”; with HeLa cell spheroid (probe in HBSS, no buffer wash, 1 μM, 50 μM (FIG. 5 legend)) it was “increase of fluorescence was slowed with the increasing distance from surface”. For the same compound, the “Increase of fluorescence in the spheroid over 0-60 minutes” value in the data set on HeLa cells spheroid is “slower increase of fluorescence in the central portion of the spheroid”. The “Increase in fluorescence intensity in the lymph nodes 10 minutes after the start of measurement” value in data set [2] (5 specimens confirmed to have no cancer metastasis in pathological diagnosis) was “little fluorescence increase”; in data set [2] (some specimens confirmed to have cancer, without impregnation with PBS), “only weak fluorescence”; in data set [2] (specimens confirmed to have cancer, impregnated with PBS (regardless of impregnating time)) it was “strong fluorescence”. For the same compound, in data set [1], the “Fluorescence intensity at each pH” value is recorded as “decreased with the elevation of pH”.
With FeRhoNox-1, in the data set with A549 cell spheroid (5 μM probe, PBS−, PBS+, PBS+Ca or PBS+EDTA 10 min), the “Fluorescence intensity distribution by pretreatment solution, 5 minutes” value is given as “same tendency as that obtained using gGlu-HMRG”.
